From PubChem BioAssay AID328 (DTP/NCI, 2004)
“And” between values parts separate entries of the source, which are not always exact repeats. Identical values can stand only once. Inconclusive results and toxic doses are left out.

Test system: BDF1 mice, P388 leukemia ip, median survival T/C
Assay: NCI In Vivo Anticancer Drug Screen. Data for tumor model P388 Leukemia (intraperitoneal) in B6D2F1 (BDF1) mice
Conditions: endpoint: median survival time, higher = longer survival
Procedure, shortened: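 Read-out is survival of treated animals expressed relative to the vehicle group, as a T/C ratio.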

[1] = dose: 25.0 mg/kg/injection, schedule: Q01DX009 (ip), vehicle: saline with Tween-80
[2] = dose: 50.0 mg/kg/injection, schedule: Q01DX009 (ip), vehicle: saline with Tween-80
[3] = dose: 50.0 mg/kg/injection, schedule: Q01DX009 (ip), vehicle: saline
[4] = dose: 100.0 mg/kg/injection, schedule: Q04DX003 (ip), vehicle: saline
[5] = dose: 100.0 mg/kg/injection, schedule: Q01DX009 (ip), vehicle: saline with Tween-80
[6] = dose: 200.0 mg/kg/injection, schedule: Q01DX009 (ip), vehicle: saline with Tween-80

CCCCCCCCCCCCCC[N+](C)(C)CC(=O)O
T/C (dose: 12.5 mg/kg/injection, schedule: Q01DX009 (ip), vehicle: saline with Tween-80): 103 % of control
T/C [1]: 106 % of control
T/C [2]: 113 % of control

CC(=O)[C@]1(O)Cc2c(O)c3c(c(O)c2[C@@H](OC2CC(N)C(O)C(C)O2)C1)C(=O)c1c(OC(C)C)cccc1C3=O (stereo not given in full)
T/C (dose: 6.25 mg/kg/injection, schedule: Q04DX003 (ip), vehicle: water): 118 % of control
T/C (dose: 12.5 mg/kg/injection, schedule: Q04DX003 (ip), vehicle: water): 162 % of control
T/C (dose: 50.0 mg/kg/injection, schedule: Q04DX003 (ip), vehicle: water): 89 % of control

CC(C)c1ncc(CCCN=C(N)N)[nH]c1=O
T/C (dose: 37.5 mg/kg/injection, schedule: Q01DX009 (ip), vehicle: saline): 98 % of control
T/C (dose: 75.0 mg/kg/injection, schedule: Q01DX009 (ip), vehicle: saline): 94 % of control
T/C (dose: 150.0 mg/kg/injection, schedule: Q01DX009 (ip), vehicle: saline): 90 % of control

O=C1C=CC(=O)N1c1ccc([N+](=O)[O-])cc1
T/C (dose: 5.25 mg/kg/injection, schedule: Q01DX009 (ip), vehicle: Klucel (hydroxypropylcellulose) (HPC)): 90 % of control
T/C (dose: 7.5 mg/kg/injection, schedule: Q04DX003 (ip), vehicle: Klucel (hydroxypropylcellulose) (HPC)): 116 % of control
T/C (dose: 10.5 mg/kg/injection, schedule: Q01DX009 (ip), vehicle: Klucel (hydroxypropylcellulose) (HPC)): 90 % of control
T/C (dose: 15.0 mg/kg/injection, schedule: Q04DX003 (ip), vehicle: Klucel (hydroxypropylcellulose) (HPC)): 95 % of control

Cc1ccc(OC(=O)Nc2ccc(C(=O)O)c(O)c2)cc1
T/C [3]: 118 % of control
T/C (dose: 100.0 mg/kg/injection, schedule: Q01DX009 (ip), vehicle: saline): 109 % of control
T/C [4]: 100 % of control
T/C (dose: 200.0 mg/kg/injection, schedule: Q04DX003 (ip), vehicle: saline): 113 % of control

CCOP(=S)(OCC)OP(=S)(OCC)OCC
T/C (dose: 1.0 mg/kg/injection, schedule: Q04DX003 (ip), vehicle: other): 111 % of control
T/C (dose: 2.0 mg/kg/injection, schedule: Q04DX003 (ip), vehicle: other): 106 % of control
T/C (dose: 4.0 mg/kg/injection, schedule: Q04DX003 (ip), vehicle: other): 106 % of control

C[C@H](CCC[C@H](C)OS(=O)(=O)c1ccccc1)OS(=O)(=O)c1ccccc1
T/C [1]: 117 % of control
T/C [2]: 99 % of control and 116 % of control
T/C [5]: 155 % of control
T/C [6]: 156 % of control and 180 % of control
T/C (dose: 400.0 mg/kg/injection, schedule: Q01DX009 (ip), vehicle: saline with Tween-80): 182 % of control

COc1ccc(/C=C/C(=O)c2ccc(OC)cc2)cc1
T/C (dose: 100.0 mg/kg/injection, schedule: Q04DX003 (ip), vehicle: Klucel (hydroxypropylcellulose) (HPC)): 100 % of control
T/C (dose: 200.0 mg/kg/injection, schedule: Q04DX003 (ip), vehicle: Klucel (hydroxypropylcellulose) (HPC)): 104 % of control
T/C (dose: 400.0 mg/kg/injection, schedule: Q04DX003 (ip), vehicle: Klucel (hydroxypropylcellulose) (HPC)): 95 % of control

O=[N+]([O-])C1(Cl)CCCCC1
T/C (dose: 6.25 mg/kg/injection, schedule: Q01DX009 (ip), vehicle: Klucel (hydroxypropylcellulose) (HPC)): 112 % of control
T/C (dose: 12.5 mg/kg/injection, schedule: Q01DX009 (ip), vehicle: Klucel (hydroxypropylcellulose) (HPC)): 108 % of control
T/C (dose: 25.0 mg/kg/injection, schedule: Q01DX009 (ip), vehicle: Klucel (hydroxypropylcellulose) (HPC)): 102 % of control and 105 % of control

CCOc1ccc2[nH]c(=S)sc2c1
T/C (dose: 100.0 mg/kg/injection, schedule: Q01DX001 (ip), vehicle: Klucel (hydroxypropylcellulose) (HPC)): 116 % of control
T/C (dose: 200.0 mg/kg/injection, schedule: Q01DX001 (ip), vehicle: Klucel (hydroxypropylcellulose) (HPC)): 91 % of control
T/C (dose: 400.0 mg/kg/injection, schedule: Q01DX001 (ip), vehicle: Klucel (hydroxypropylcellulose) (HPC)): 95 % of control

C=CCCCC[P+](c1ccccc1)(c1ccccc1)c1ccccc1
T/C (dose: 0.75 mg/kg/injection, schedule: Q01DX010 (ip), vehicle: saline): 110 % of control
T/C (dose: 1.5 mg/kg/injection, schedule: Q01DX010 (ip), vehicle: saline): 115 % of control and 120 % of control
T/C (dose: 6.0 mg/kg/injection, schedule: Q01DX010 (ip), vehicle: saline): 152 % of control
T/C (dose: 12.0 mg/kg/injection, schedule: Q01DX010 (ip), vehicle: saline): 110 % of control

Cc1ccc(C(=O)NCCCOc2ccc(N)cc2Cl)cc1S(=O)(=O)F
T/C [1]: 102 % of control
T/C [2]: 111 % of control
T/C (dose: 50.0 mg/kg/injection, schedule: Q04DX003 (ip), vehicle: saline with Tween-80): 100 % of control
T/C [5]: 93 % of control
T/C (dose: 100.0 mg/kg/injection, schedule: Q04DX003 (ip), vehicle: saline with Tween-80): 92 % of control
T/C [6]: 107 % of control
T/C (dose: 200.0 mg/kg/injection, schedule: Q04DX003 (ip), vehicle: saline with Tween-80): 92 % of control
T/C (dose: 400.0 mg/kg/injection, schedule: Q04DX003 (ip), vehicle: saline with Tween-80): 90 % of control

O=S(=O)(c1cccc(C(F)(F)F)c1)N1c2ccccc2-n2cccc2C1c1cccnc1 (stereo not given)
T/C (dose: 50.0 mg/kg/injection, schedule: Q01DX009 (ip), vehicle: Klucel (hydroxypropylcellulose) (HPC)): 94 % of control
T/C (dose: 100.0 mg/kg/injection, schedule: Q01DX009 (ip), vehicle: Klucel (hydroxypropylcellulose) (HPC)): 103 % of control
T/C (dose: 200.0 mg/kg/injection, schedule: Q01DX009 (ip), vehicle: Klucel (hydroxypropylcellulose) (HPC)): 96 % of control

O=C(Nc1cc(Cl)c(NC(=O)c2ccccc2)c(Cl)c1)c1ccccc1
T/C (dose: 12.5 mg/kg/injection, schedule: Q01DX001 (ip), vehicle: saline with Tween-80): 100 % of control
T/C (dose: 25.0 mg/kg/injection, schedule: Q01DX001 (ip), vehicle: saline with Tween-80): 90 % of control and 95 % of control
T/C (dose: 50.0 mg/kg/injection, schedule: Q01DX001 (ip), vehicle: saline with Tween-80): 90 % of control
T/C (dose: 100.0 mg/kg/injection, schedule: Q01DX001 (ip), vehicle: saline with Tween-80): 95 % of control

CC(=O)[O][Pb]([CH2]C(C)C)([CH2]C(C)C)[CH2]C(C)C
T/C (dose: 0.75 mg/kg/injection, schedule: Q01DX009 (ip), vehicle: Klucel (hydroxypropylcellulose) (HPC)): 107 % of control
T/C (dose: 1.5 mg/kg/injection, schedule: Q01DX009 (ip), vehicle: Klucel (hydroxypropylcellulose) (HPC)): 109 % of control
T/C (dose: 3.0 mg/kg/injection, schedule: Q01DX009 (ip), vehicle: Klucel (hydroxypropylcellulose) (HPC)): 105 % of control
T/C (dose: 6.0 mg/kg/injection, schedule: Q01DX009 (ip), vehicle: Klucel (hydroxypropylcellulose) (HPC)): 107 % of control
T/C (dose: 12.0 mg/kg/injection, schedule: Q01DX009 (ip), vehicle: Klucel (hydroxypropylcellulose) (HPC)): 107 % of control

CCN(CC)CCOC(=O)c1ccccc1Nc1cccc(C)c1
T/C (dose: 25.0 mg/kg/injection, schedule: Q01DX009 (ip), vehicle: saline): 104 % of control
T/C (dose: 25.0 mg/kg/injection, schedule: Q04DX003 (ip), vehicle: saline): 109 % of control
T/C [3]: 108 % of control
T/C (dose: 50.0 mg/kg/injection, schedule: Q04DX003 (ip), vehicle: saline): 100 % of control
T/C (dose: 87.0 mg/kg/injection, schedule: Q04DX003 (ip), vehicle: saline): 119 % of control
T/C [4]: 109 % of control
T/C (dose: 175.0 mg/kg/injection, schedule: Q04DX003 (ip), vehicle: saline): 107 % of control

Nc1nc(N)c2cc(CNc3ccc(C(=O)NC(CC(=O)O)CC(=O)O)cc3)ccc2n1
T/C (dose: 132.0 mg/kg/injection, schedule: Q01DX009 (ip), vehicle: saline with Tween-80): 90 % of control

CCC1(O)CC(OC2CC(N(C)C)C(OC3CC(O)C(OC4CCC(=O)C(C)O4)C(C)O3)C(C)O2)c2c(cc3c(c2O)C(=O)c2c(O)ccc(O)c2C3=O)C1C(=O)OC (stereo not given)
T/C (dose: 2.88 mg/kg/injection, schedule: Q04DX003 (ip), vehicle: water): 181 % of control
T/C (dose: 4.8 mg/kg/injection, schedule: Q04DX003 (ip), vehicle: water): 236 % of control
T/C (dose: 1:8.0 dilution, schedule: Q01DX009 (ip), vehicle: saline): 173 % of control
T/C (dose: 1:64.0 dilution, schedule: Q01DX009 (ip), vehicle: saline): 116 % of control
